By IC50 is commonly meant the concentration that gives 50% inhibition. A higher IC50 goes with weaker potency in that assay.

The text below walks through data of ChEMBL document CHEMBL1142948, “Somatostatin receptor-binding peptides suitable for tumor radiotherapy with Re-188 or Re-186. Chemistry and initial biological studies” (J Med Chem, 2007).

Experiment [1] has as its target Somatostatin receptor. Briefly: Displacement of [125I]SRIF-14 from SSTR of rat AR42J cell membranes. On the set-up: species or system Membrane. The note with it: ar-42j.
In experiment [2] the target is Somatostatin receptor. Briefly: Displacement of [125I-Tyr-11]-SRIF from SSTR of human NCI-H69 cell membranes.

For `C[C@@H](O)[C@@H]1NC(=O)[C@H](CCCCN)NC(=O)[C@H](Cc2c[nH]c3ccccc23)NC(=O)[C@H](Cc2ccc(O)cc2)NC(=O)[C@@H](CCS)NC(=O)[C@H](Cc2ccccc2)N(C)C1=O`, at Somatostatin receptor [1], the 50% inhibitory concentration (IC50) worked out at 23.7 nM.

With `CC(C)[C@@H]1NC(=O)[C@H](CCCCN)NC(=O)[C@H](Cc2c[nH]c3ccccc23)NC(=O)[C@H](Cc2ccc(O)cc2)NC(=O)[C@@H](Cc2ccccc2)N(C)C(=O)[C@H](CCS)NC1=O`, the IC50 on Somatostatin receptor [1] was determined as 1.5 nM.

`C[C@@H](O)[C@@H]1NC(=O)[C@H](CCCCN)NC(=O)[C@@H](Cc2c[nH]c3ccccc23)NC(=O)[C@H](Cc2ccc(O)cc2)NC(=O)[C@H](CCSCC(=O)NC[C@H](N)C(=O)N[C@@H](Cc2ccc(N)cc2)C(=O)N[C@@H](CS)C(=O)N[C@H](CO)[C@@H](C)O)N(C)C(=O)[C@H](Cc2ccccc2)NC1=O` displayed a half-inhibitory concentration (IC50) on Somatostatin receptor [2] of 0.5 nM.

Compound `C[C@@H](O)[C@@H]1NC(=O)[C@H](CCCCN)NC(=O)[C@H](Cc2c[nH]c3ccccc23)NC(=O)[C@H](Cc2ccc(O)cc2)NC(=O)[C@@H](CCS)N(C)C(=O)[C@H](Cc2ccccc2)NC1=O` yielded a half-maximal inhibitory concentration (IC50) on Somatostatin receptor [1] of 0.1 nM.

Turning to `C[C@@H](O)[C@@H]1NC(=O)[C@H](CCCCN)NC(=O)[C@@H](Cc2c[nH]c3ccccc23)NC(=O)[C@H](Cc2ccc(O)cc2)NC(=O)[C@H](CCSCC(=O)NC[C@H](N)C(=O)N[C@@H](CCCCN)C(=O)N[C@@H](CS)C(=O)N[C@H](CO)[C@@H](C)O)N(C)C(=O)[C@H](Cc2ccccc2)NC1=O`, the half-inhibitory concentration (IC50) at Somatostatin receptor [2] was found to be 0.35 nM.

At Somatostatin receptor [1], `CC(C)[C@@H]1NC(=O)[C@H](CCCCN)NC(=O)[C@H](Cc2c[nH]c3ccccc23)NC(=O)[C@H](Cc2ccc(O)cc2)NC(=O)[C@@H](CCS)N(C)C(=O)[C@H](Cc2ccccc2)NC1=O` gave a concentration for half-maximal inhibition (IC50) of 0.7 nM.

The compound `C[C@@H](O)[C@H](NC(=O)[C@H](CS)NC(=O)[C@H](Cc1ccc(N)cc1)NC(=O)[C@@H](N)CNC(=O)CSCC[C@H]1C(=O)N[C@@H](Cc2ccc(O)cc2)C(=O)N[C@H](Cc2c[nH]c3ccccc23)C(=O)N[C@@H](CCCCN)C(=O)N[C@@H]([C@@H](C)O)C(=O)N[C@@H](Cc2ccccc2)C(=O)N1C)C(=O)O` showed a half-inhibitory concentration (IC50) on Somatostatin receptor [2] of 0.64 nM.

In turn, `C[C@@H](O)[C@@H]1NC(=O)[C@H](CCCCN)NC(=O)[C@@H](Cc2c[nH]c3ccccc23)NC(=O)[C@H](Cc2ccc(O)cc2)NC(=O)[C@H](CCSCC(=O)NC[C@H](N)C(=O)N[C@@H](CO)C(=O)N[C@@H](CS)C(=O)N[C@H](CO)[C@@H](C)O)N(C)C(=O)[C@H](Cc2ccccc2)NC1=O` showed an IC50 at Somatostatin receptor [2] of 1.6 nM.

At Somatostatin receptor [2], `C[C@@H](O)[C@H](NC(=O)CSCC[C@H]1C(=O)N[C@@H](Cc2ccc(O)cc2)C(=O)N[C@H](Cc2c[nH]c3ccccc23)C(=O)N[C@@H](CCCCN)C(=O)N[C@@H]([C@@H](C)O)C(=O)N[C@@H](Cc2ccccc2)C(=O)N1C)C(=O)NCC(=O)NCC(=O)N[C@@H](CS)C(N)=O` had an IC50 of 1.6 nM.

The compound `C[C@@H](O)[C@H](NC(=O)[C@H](CS)NC(=O)[C@H](Cc1ccc(N)cc1)NC(=O)[C@@H](N)CNC(=O)CSCC[C@H]1C(=O)N[C@@H](Cc2ccc(O)cc2)C(=O)N[C@H](Cc2c[nH]c3ccccc23)C(=O)N[C@@H](CCCCN)C(=O)N[C@@H]([C@@H](C)O)C(=O)N[C@@H](Cc2ccccc2)C(=O)N1C)C(=O)N[C@@H](CO)C(=O)O` had a half-maximal inhibitory concentration (IC50) on Somatostatin receptor [2] of 0.2 nM.

Consider `C[C@@H](O)[C@@H]1NC(=O)[C@H](CCCCN)NC(=O)[C@H](Cc2c[nH]c3ccccc23)NC(=O)[C@H](Cc2ccc(O)cc2)NC(=O)[C@@H](Cc2ccccc2)N(C)C(=O)[C@H](CCS)NC1=O`, for which the 50% inhibitory concentration (IC50) at Somatostatin receptor [1] turned out to be 0.4 nM.
